Test results published in patent US8586611B2 (priority 2005, dated 2013).
Like-named read-outs stand apart in the source and are kept apart here.

Key:
Assay type in all cases: in vivo
Plasmopara viticola = assay: Test B: grape downy mildew, spray 24 h after inoculation (disease rating, 100 = 100% disease control)
Text: (§1) The test compounds were first dissolved in acetone in an amount equal to 3% of the final volume and then suspended at the desired concentration (in ppm) in acetone and purified water (50/50 mix by volume) containing 250 ppm of the surfactant Trem® 014 (polyhydric alcohol esters). The resulting test suspensions were then used in tests A-E. Spraying a 200 ppm test suspension to the point of run-off on the test plants was the equivalent of a rate of 500 g/ha.
Grape seedlings were inoculated with a spore suspension of Plasmopara viticola (the causal agent of grape downy mildew) and incubated in a saturated atmosphere at 20° C. for 24 h. After a short drying period, the test suspension was sprayed to the point of run-off on the grape seedlings and then moved to a growth chamber at 20° C. for 5 days, after which the test units were placed back into a saturated atmosphere at 20° C. for 24 h. Upon removal, disease ratings were made.
(§2) Results for Tests A-F are given in Table A. In the table, a rating of 100 indicates 100% disease control and a rating of 0 indicates no disease control (relative to the controls). A dash (-) indicates no test results.

Phytophthora infestans [1] = assay: whole plant or invertebrate; conditions: for Test C disease rating (100 = 100% disease control, 0 = no disease control): tomato late blight
Phytophthora infestans [2] = assay: whole plant or invertebrate; conditions: for Test D disease rating (100 = 100% disease control, 0 = no disease control): tomato late blight
[3] = test system: Erysiphe graminis f. sp. tritici; assay: Test E: wheat powdery mildew, spray the day before inoculation (disease rating, 100 = 100% disease control)
Text: as §1
The test suspension was sprayed to the point of run-off on wheat seedlings. The following day the seedlings were inoculated with a spore dust of Erysiphe graminis f. sp. tritici, (the causal agent of wheat powdery mildew) and incubated in a growth chamber at 20° C. for 7 days, after which disease ratings were made.
as §2

[4] = Plasmopara viticola, 144 h, spray 24 h after inoculation, tested at 40 ppm, read-out: Test B disease rating (100 = 100% disease control, 0 = no disease control)
[5] = Phytophthora infestans, in Solanum lycopersicum, 144 h, read-out: Test C disease rating (100 = 100% disease control, 0 = no disease control)
[6] = Phytophthora infestans, in Solanum lycopersicum, topical, 96 h, read-out: Test D disease rating (100 = 100% disease control, 0 = no disease control)
[7] = Blumeria graminis, topical, 168 h, spray the day before inoculation, tested at 40 ppm, read-out: Test E disease rating (100 = 100% disease control, 0 = no disease control)
[8] = spray the day before inoculation, tested at 40 ppm
[9] = spray 24 h after inoculation, compounds without asterisk (not 40 or 10 ppm)
[10] = spray the day before inoculation, compounds without asterisk (not 40 or 10 ppm)
[11] = spray 17 h after inoculation, compounds without asterisk (not 40 or 10 ppm)

Compound	pest or weed control at 40 ppm (Plasmopara viticola; [4])	pest or weed control at 40 ppm (Phytophthora infestans [1]; [5])	pest or weed control at 40 ppm (Phytophthora infestans [2]; [6])	pest or weed control at 40 ppm [3, 7]	Test B disease rating (100 = 100% disease control, 0 = no disease control) (Plasmopara viticola; [9])	Test C disease rating (100 = 100% disease control, 0 = no disease control) (Phytophthora infestans [1]; [10])	Test D disease rating (100 = 100% disease control, 0 = no disease control) (Phytophthora infestans [2]; [11])	Test E disease rating (100 = 100% disease control, 0 = no disease control) [3, 10]	other results
Cc1cc(C(F)(F)F)nn1CC(=O)N1CCC(c2nc(C(=O)N(C)C3c4ccccc4CC3C)cs2)CC1 (stereo not shown) [Compound 226, N-(2,3-dihydro-2-methyl-1H-inden-1-yl)-N-methyl-2-[1-[[5-methyl-3-(trifluoromethyl)-1H-pyrazol-1-yl]acetyl]-4-piperidinyl]-4-thiazolecarboxamide]	100%	100%	99%	0%	–	–	–	–	–
Cc1cc(C(F)(F)F)nn1CC(=O)N1CCC(n2cc(C(=O)N(C)[C@@H]3CCCc4ccccc43)cn2)CC1 [Compound 233, N-methyl-1-[1-[[5-methyl-3-(trifluoromethyl)-1H-pyrazol-1-yl]acetyl]-4-piperidinyl]-N-[(1R)-1,2,3,4-tetrahydro-1-naphthalenyl]-1H-pyrazole-4-carboxamide]	99%	100%	99%	0%	–	–	–	–	–
CN(C(=O)c1csc(C2CCN(C(=O)Cn3nc(Cl)cc3Cl)CC2)n1)[C@@H]1CCCc2ccccc21 [Compound 238, 2-[1-[(3,5-dichloro-1H-pyrazol-1-yl)acetyl]-4-piperidinyl]-N-methyl-N-[(1R)-1,2,3,4-tetrahydro-1-naphthalenyl]-4-thiazolecarboxamide]	–	–	–	–	–	–	–	–	pest or weed control at 10 ppm (Plasmopara viticola; Plasmopara viticola, 144 h, spray 24 h after inoculation, tested at 10 ppm, read-out: Test B disease rating (100 = 100% disease control, 0 = no disease control)): 100%; pest or weed control at 10 ppm (Phytophthora infestans [1]; [5]): 100%; pest or weed control at 10 ppm (Phytophthora infestans [2]; [6]): 99%; pest or weed control at 10 ppm ([3]; Blumeria graminis, topical, 168 h, spray the day before inoculation, tested at 10 ppm, read-out: Test E disease rating (100 = 100% disease control, 0 = no disease control)): 0%
CN(C(=O)c1csc(C2CCN(C(=O)Cn3nc(C(F)(F)F)cc3Cl)CC2)n1)[C@@H]1CCCc2ccccc21 [Compound 249, 2-[1-[[5-chloro-3-(trifluoromethyl)-1H-pyrazol-1-yl]acetyl]-4-piperidinyl]-N-methyl-N-[(1R)-1,2,3,4-tetrahydro-1-naphthalenyl]-4-thiazolecarboxamide]	100%	100%	99%	0%	–	–	–	–	–
Cc1cc(C(F)(F)F)nn1CC(=O)N1CCC(c2nc(C(=S)N(C)[C@@H]3CCCc4ccccc43)cs2)CC1 [Compound 289, N-methyl-2-[1-[[5-methyl-3-(trifluoromethyl)-1H-pyrazol-1-yl]acetyl]-4-piperidinyl]-N-[(1R)-1,2,3,4-tetrahydro-1-naphthalenyl]-4-thiazolecarbothioamide]	–	–	–	–	–	–	–	–	Test B disease rating (100 = 100% disease control, 0 = no disease control) (Plasmopara viticola; sprayed 24 h after inoculation, tested at 40 ppm (*)): 100; Test C disease rating (100 = 100% disease control, 0 = no disease control) (Phytophthora infestans [1]; sprayed the day before inoculation, tested at 40 ppm (*)): 100; Test D disease rating (100 = 100% disease control, 0 = no disease control) (Phytophthora infestans [2]; sprayed 17 h after inoculation, tested at 40 ppm (*)): 99; Test E disease rating (100 = 100% disease control, 0 = no disease control) ([3]; sprayed the day before inoculation, 7 days at 20° C., tested at 40 ppm (*)): 65
Cc1cc(C(F)(F)F)nn1CC(=O)N1C=CC(c2nc(C(=O)N(C)[C@@H]3CCCc4ccccc43)cs2)CC1 (stereo partly drawn) [Compound 315, N-methyl-2-[1,2,3,4-tetrahydro-1-[[5-methyl-3-(trifluoromethyl)-1H-pyrazol-1-yl]acetyl]-4-pyridinyl]-N-[(1R)-1,2,3,4-tetrahydro-1-naphthalenyl]-4-thiazolecarboxamide]	–	–	–	–	–	–	–	–	Test B disease rating (100 = 100% disease control, 0 = no disease control) (Plasmopara viticola; sprayed 24 h after inoculation, tested at 10 ppm (**)): 72; Test C disease rating (100 = 100% disease control, 0 = no disease control) (Phytophthora infestans [1]; sprayed the day before inoculation, tested at 10 ppm (**)): 100; Test D disease rating (100 = 100% disease control, 0 = no disease control) (Phytophthora infestans [2]; sprayed 17 h after inoculation, tested at 10 ppm (**)): 88; Test E disease rating (100 = 100% disease control, 0 = no disease control) ([3]; sprayed the day before inoculation, 7 days at 20° C., tested at 10 ppm (**)): 0
C[C@H](c1ccccc1)N(C)C(=O)c1csc(C2CCN(C(=O)Cc3cccc(F)c3F)CC2)n1 [compound 46]	–	–	–	–	–	–	–	–	Test B disease rating (100 = 100% disease control, 0 = no disease control) (Plasmopara viticola; spray 24 h after inoculation, tested at 40 ppm): 0%; Test C disease rating (100 = 100% disease control, 0 = no disease control) (Phytophthora infestans [1]; [8]): 0%; Test D disease rating (100 = 100% disease control, 0 = no disease control) (Phytophthora infestans [2]; spray 17 h after inoculation, tested at 40 ppm): 0%; Test E disease rating (100 = 100% disease control, 0 = no disease control) [3, 8]: 0%
COc1ccccc1CC(=O)N1CCN(c2nc(C(=O)N(C)[C@H](C)c3ccccc3)co2)CC1 [compound 53]	–	–	–	–	20%	100%	89%	0%	–
Cc1ccc(C)c(CC(=O)N2CCC(c3nc(C(=O)N(C)[C@H](C)c4cccc(C(F)(F)F)c4)cs3)CC2)c1 [compound 56]	–	–	–	–	31%	93%	0%	0%	–
Cc1cccc(CC(=O)N2CCC(c3nc(C(=O)N(C)C(C)c4ncc(Cl)cc4Cl)cs3)CC2)c1 (stereo not shown) [compound 61]	–	–	–	–	2%	69%	0%	0%	–
